Experimental findings from the OPERA property sets (Mansouri et al. 2018) are described below.

In general, logP refers to a log measure of how a compound divides between an organic and an aqueous phase. High values mean higher lipophilicity, low ones lower lipophilicity. Consider `CS(=O)c1ccc([N+](=O)[O-])s1` (stereo not drawn), for which the logP was determined as 1.4. The value for `Cc1sc(S(C)=O)c([N+](=O)[O-])c1C` (stereo not drawn) was 2.65; that for `CCCCCC1(c2ccc(S(=O)CC)c([N+](=O)[O-])c2)OCCO1` (stereo not drawn) was 5.11. For `CCS(=O)c1nc(C)cc(C)c1C#N` (stereo not drawn), the logP came to 1.77.

As to `CCS(=O)c1c(Cl)cncc1Cl` (stereo not drawn), the logP is 2.1.

As for `CCCCCC(=O)c1ccc(S(=O)CC)c([N+](=O)[O-])c1` (stereo not drawn), the logP turned out to be 4.36.

Molecule `CCCS(=O)c1sc(C#N)c(Cl)c1C#N` (stereo not drawn) displayed a logP of 2.95. In turn, `CC(=O)c1sc(S(C)=O)c(-c2ccc(Cl)cc2)c1C` (stereo not drawn) came in with a logP of 3.82. In turn, `CCC(=O)c1ccc(S(=O)CC)c([N+](=O)[O-])c1` (stereo not drawn) yielded a logP of 2.8. `CCS(=O)c1sc(C(C)=O)c(C)c1C#N` (stereo not drawn): the logP worked out at 2.22. As for `CS(=O)c1scc(-c2ccccc2)c1[N+](=O)[O-]` (stereo not drawn), the logP stood at 3.2. `CCS(=O)c1sc(C#N)c(C)c1C(C)=O` (stereo not drawn) gave a logP of 2.22.

`CCS(=O)c1sc(C#N)c(OC)c1C#N` (stereo not drawn) returned a logP of 2.35. Consider `CCS(=O)c1sc(C(C)=O)c(N)c1C#N` (stereo not drawn), for which the logP was found to be 1.82. For the molecule `CCCS(=O)c1sccc1[N+](=O)[O-]` (stereo not drawn), the logP was found to be 2.52.

`CC(=O)c1sc(S(C)=O)c(C#N)c1-c1ccc(Cl)cc1` (stereo not drawn) returned a logP of 3.31. In the case of `CCS(=O)c1sc(C(C)=O)c(C)c1[N+](=O)[O-]` (stereo not drawn), the logP was found to be 2.81. The molecule `CCS(=O)c1ccc([N+](=O)[O-])cc1C#N` (stereo not drawn) yielded a logP of 2.15.

With `CCS(=O)c1ccc(C(C)=O)s1` (stereo not drawn), the logP is 1.31. `CS(=O)c1sc(C#N)c(Cl)c1C#N` (stereo not drawn): the logP came to 2.15. As to `CS(=O)c1sccc1C#N` (stereo not drawn), the logP turned out to be 0.96. Take `CC(=O)c1sc(S(C)=O)c(-c2ccccc2)c1C` (stereo not drawn): the logP was 3.26. Molecule `COc1c(C#N)sc(S(C)=O)c1C#N` (stereo not drawn) gave a logP of 2.02. Consider `CS(=O)c1sccc1Br` (stereo not drawn), for which the logP turned out to be 1.71.

In the case of `CC(C)CS(=O)c1sccc1[N+](=O)[O-]` (stereo not drawn), the logP worked out at 2.93. Molecule `CS(=O)c1cccs1` (stereo not drawn) had a logP of 0.91. The value for `CS(=O)c1sc(C#N)cc1C#N` (stereo not drawn) was 1.31; that for `CCS(=O)c1ccc(Cl)cc1S(C)(=O)=O` (stereo not drawn) was 2.31; that for `Cc1csc(S(C)=O)c1[N+](=O)[O-]` (stereo not drawn) was 2.19. The molecule `CCS(=O)c1ccc(C(=O)c2ccccc2)cc1[N+](=O)[O-]` (stereo not drawn) yielded a logP of 3.82. For `CS(=O)c1nc(-c2ccccc2)cc(C(F)(F)F)n1` (stereo not drawn) the value was 3.01. For `CS(=O)c1ccsc1` (stereo not drawn), the logP was 0.91.

Consider `CCS(=O)c1ccc([N+](=O)[O-])cn1` (stereo not drawn), for which the logP worked out at 1.74. Regarding `CCS(=O)c1nc(C)c([N+](=O)[O-])c(C)c1C#N` (stereo not drawn), the logP worked out at 2.44. The value for `CS(=O)c1sccc1[N+](=O)[O-]` (stereo not drawn) was 1.69.

`CCS(=O)c1sc(C(C)=O)c(Cl)c1C#N` (stereo not drawn) came in with a logP of 2.64. For `CCS(=O)c1ccc2ccccc2n1` (stereo not drawn), the logP was 2.43. `CCCCS(=O)c1sc(C#N)cc1C#N` (stereo not drawn) displayed a logP of 2.64.

Turning to `CCS(=O)c1sc(C#N)cc1C#N` (stereo not drawn), the logP is 1.78. Take `Cc1c(C#N)sc(S(C)=O)c1-c1ccc(Cl)cc1` (stereo not drawn): the logP is 3.8. Take `CCS(=O)c1cnc2ccccc2n1` (stereo not drawn): the logP was found to be 2.29.

On to `CC(=O)c1sc(S(C)=O)c(-c2ccc(Cl)cc2)c1N` (stereo not drawn), for which the log partition coefficient (logP) came out at 3.18. For `CCS(=O)c1sc(Cl)cc1C#N` (stereo not drawn) the value was 2.31. The molecule `CCS(=O)c1sccc1[N+](=O)[O-]` (stereo not drawn) displayed a logP of 2.06. Molecule `Cc1c(C#N)sc(S(C)=O)c1-c1ccccc1` (stereo not drawn) came in with a logP of 3.36. As to `CCCCS(=O)c1sc(C#N)c(Cl)c1C#N` (stereo not drawn), the logP was found to be 3.44.

As for `CCOC(=O)c1cc(C#N)c(S(C)=O)s1` (stereo not drawn), the logP came out at 2.27. In the case of `CCCS(=O)c1sc(C#N)cc1C#N` (stereo not drawn), the logP was 2.18.
